For series [1], the system named is TcdA and TcdB holotoxins. The format is biochemical, Clostridium difficile. Conditions: for AC50: read-out: AC50 (concentration that provides half the maximum activity). The method, then:
(§1) In Vitro Testing of Nitroso-InsP6 Derivatives. In vitro testing and measurement of binding affinities of compounds are performed using toxin cleavage assays, and by radioligand or BIACORE-toxin binding studies, respectively. For medium throughput toxin cleavage assays, autocleavage of 1 μg TcdA and TcdB holotoxins is performed in 25 μL 20 mM Tris-HCI, 150 mM NaCI (pH 7.4) with and without InsP6 for 10-60 min at 37° C. (FIG. 6). Cleavage reactions are then stopped with SDS-PAGE loading buffer and boiling at 96° C. for 5 min. Samples are then run under reducing conditions on 4-20% gradient gels and cleavage products stained with GelcodeBiue™ for 1 hr and cleared in water overnight. AC50 and IC50 concentrations are calculated by measuring the relative absorbance of cleavage fragments relative to intact toxin using a LiCor Odyssey infrared scanner (λ=680 nm). Cleavage is plotted against ligand concentration using four-parameter logistic curve fitting on SigmaPlot 11.0 software. If the toxin cleavage efficiency remains unaltered in purified nitroso-InsP6 fractions, then toxin Rac1 glucosylation and cell rounding assays are initiated to evaluate cytoprotection in cell culture systems. […] Thus, enzymatic digestions of nitroso-InsP6 derivatives are carried out with EC 3.1.3.8 (type 3 phytase); EC 3.1.3.72 (type 5 phytase), and EC 3.1.3.26 (type 4/6 phytase) to test whether the NO-modifications are nonhydrolysable (e.g., FIG. 7).

The subject of the next series is phytase. Conditions: FIG. 7. The method, then: In Vitro Testing of Nitroso-InsP6 Derivatives. In vitro testing and measurement of binding affinities of compounds are performed using toxin cleavage assays, and by radioligand or BIACORE-toxin binding studies, respectively. For medium throughput toxin cleavage assays, autocleavage of 1 μg TcdA and TcdB holotoxins is performed in 25 μL 20 mM Tris-HCI, 150 mM NaCI (pH 7.4) with and without InsP6 for 10-60 min at 37° C. (FIG. 6). Cleavage reactions are then stopped with SDS-PAGE loading buffer and boiling at 96° C. for 5 min. Samples are then run under reducing conditions on 4-20% gradient gels and cleavage products stained with GelcodeBiue™ for 1 hr and cleared in water overnight. AC50 and IC50 concentrations are calculated by measuring the relative absorbance of cleavage fragments relative to intact toxin using a LiCor Odyssey infrared scanner (λ=680 nm). Cleavage is plotted against ligand concentration using four-parameter logistic curve fitting on SigmaPlot 11.0 software. If the toxin cleavage efficiency remains unaltered in purified nitroso-InsP6 fractions, then toxin Rac1 glucosylation and cell rounding assays are initiated to evaluate cytoprotection in cell culture systems. […]

In the next series the test system is C. difficile. The experiment in a line: Experimental CDI model, delivery by implanted mini-osmotic pumps. The format is in vivo, mice. Conditions: 12.5 mg/kg/day by 7 day mini-osmotic pumps, from 1 day before inoculation with 10^6 bacteria. An excerpt:
In this set of experiments, vehicle treatment was associated with 100% mortality, vs. 40% and 10% for InsP6 and nitroso-InsP6 groups, respectively.
Because of the current uncertainty of the nitroso-InsP6 chemistry, there may be potential limitations to oral nitroso-InsP6 delivery as this molecule may show poor colonic bioavailability due to degradation and absorption in the small intestine.

Another series has as its system Caco-2 colonocytes. The experiment in a line: Inhibition of toxin-induced cytotoxicity in Caco-2 colonocytes. Particulars: Homo sapiens, FIG. 3A right. The format is cell-based.
Series [2] addresses TcdA and TcdB holotoxins (Clostridioides difficile, UniProt P18177). The format is biochemical, Clostridium difficile. The method, then:
as §1

The subject of series [3] is C. difficile (strain VPI 10463). The experiment in a line: Murine CDI model, InsP6 given intragastrically. The format is in vivo, C57BL/6 mice. Particulars: for Protection of mice from CDI (survival): oral/intragastric 0.25 and 2.5 mg/kg/day, 10^6 C. difficile, survival at day 6. How it is done:
FIGS. 3A-3D show therapeutic allostery and examples of the assays to test designed compounds. […] (FIGS. 3C-3D) Kaplan-Meier survival plots of infected mice. C57BL/6 mice were inoculated with 10^6 C. difficile.
Optimization of Phytase-Resistant InsP6 Analogues for CDI Therapy. Aspects of the present invention provide compositions and methods of neutralizing C. difficile exotoxins in the extracellular gut environment. […] C57BL/6 mice were administered antibiotics and then orally inoculated with 10^4-to-10^6 C. difficile (strain VPI 10463). Disease outcome measures included evidence of inflammation and fluid secretion in the caecum and colon of severely afflicted animals, and of characteristic pseudomembraneous histopathologic lesions in the colonic mucosa. […] The highest bacterial dose (10^6 CFU) was used to test for InsP6 efficacy given intra-gastrically (0.25-to-2.5 mg/kg/day; range is within the recommended oral daily dose for humans (1,020 mg/day)).

Where [4] appears, read: Table 1, representative inositol analogs.

Eleven compounds from patent US9200015B2, “Inositol hexakisphosphate analogs and uses thereof” (priority 2011, dated 2015) can be followed below.

The IC50 is the concentration at which inhibition is half-maximal. A high value points to weaker potency.

“Also recorded” adds a separate entry of the source. Read-outs that look alike come from different tables or passages of the source.

Chain of TcdA and TcdB holotoxins (Clostridioides difficile, UniProt P18177) (P18177 2-2366 limits assumed): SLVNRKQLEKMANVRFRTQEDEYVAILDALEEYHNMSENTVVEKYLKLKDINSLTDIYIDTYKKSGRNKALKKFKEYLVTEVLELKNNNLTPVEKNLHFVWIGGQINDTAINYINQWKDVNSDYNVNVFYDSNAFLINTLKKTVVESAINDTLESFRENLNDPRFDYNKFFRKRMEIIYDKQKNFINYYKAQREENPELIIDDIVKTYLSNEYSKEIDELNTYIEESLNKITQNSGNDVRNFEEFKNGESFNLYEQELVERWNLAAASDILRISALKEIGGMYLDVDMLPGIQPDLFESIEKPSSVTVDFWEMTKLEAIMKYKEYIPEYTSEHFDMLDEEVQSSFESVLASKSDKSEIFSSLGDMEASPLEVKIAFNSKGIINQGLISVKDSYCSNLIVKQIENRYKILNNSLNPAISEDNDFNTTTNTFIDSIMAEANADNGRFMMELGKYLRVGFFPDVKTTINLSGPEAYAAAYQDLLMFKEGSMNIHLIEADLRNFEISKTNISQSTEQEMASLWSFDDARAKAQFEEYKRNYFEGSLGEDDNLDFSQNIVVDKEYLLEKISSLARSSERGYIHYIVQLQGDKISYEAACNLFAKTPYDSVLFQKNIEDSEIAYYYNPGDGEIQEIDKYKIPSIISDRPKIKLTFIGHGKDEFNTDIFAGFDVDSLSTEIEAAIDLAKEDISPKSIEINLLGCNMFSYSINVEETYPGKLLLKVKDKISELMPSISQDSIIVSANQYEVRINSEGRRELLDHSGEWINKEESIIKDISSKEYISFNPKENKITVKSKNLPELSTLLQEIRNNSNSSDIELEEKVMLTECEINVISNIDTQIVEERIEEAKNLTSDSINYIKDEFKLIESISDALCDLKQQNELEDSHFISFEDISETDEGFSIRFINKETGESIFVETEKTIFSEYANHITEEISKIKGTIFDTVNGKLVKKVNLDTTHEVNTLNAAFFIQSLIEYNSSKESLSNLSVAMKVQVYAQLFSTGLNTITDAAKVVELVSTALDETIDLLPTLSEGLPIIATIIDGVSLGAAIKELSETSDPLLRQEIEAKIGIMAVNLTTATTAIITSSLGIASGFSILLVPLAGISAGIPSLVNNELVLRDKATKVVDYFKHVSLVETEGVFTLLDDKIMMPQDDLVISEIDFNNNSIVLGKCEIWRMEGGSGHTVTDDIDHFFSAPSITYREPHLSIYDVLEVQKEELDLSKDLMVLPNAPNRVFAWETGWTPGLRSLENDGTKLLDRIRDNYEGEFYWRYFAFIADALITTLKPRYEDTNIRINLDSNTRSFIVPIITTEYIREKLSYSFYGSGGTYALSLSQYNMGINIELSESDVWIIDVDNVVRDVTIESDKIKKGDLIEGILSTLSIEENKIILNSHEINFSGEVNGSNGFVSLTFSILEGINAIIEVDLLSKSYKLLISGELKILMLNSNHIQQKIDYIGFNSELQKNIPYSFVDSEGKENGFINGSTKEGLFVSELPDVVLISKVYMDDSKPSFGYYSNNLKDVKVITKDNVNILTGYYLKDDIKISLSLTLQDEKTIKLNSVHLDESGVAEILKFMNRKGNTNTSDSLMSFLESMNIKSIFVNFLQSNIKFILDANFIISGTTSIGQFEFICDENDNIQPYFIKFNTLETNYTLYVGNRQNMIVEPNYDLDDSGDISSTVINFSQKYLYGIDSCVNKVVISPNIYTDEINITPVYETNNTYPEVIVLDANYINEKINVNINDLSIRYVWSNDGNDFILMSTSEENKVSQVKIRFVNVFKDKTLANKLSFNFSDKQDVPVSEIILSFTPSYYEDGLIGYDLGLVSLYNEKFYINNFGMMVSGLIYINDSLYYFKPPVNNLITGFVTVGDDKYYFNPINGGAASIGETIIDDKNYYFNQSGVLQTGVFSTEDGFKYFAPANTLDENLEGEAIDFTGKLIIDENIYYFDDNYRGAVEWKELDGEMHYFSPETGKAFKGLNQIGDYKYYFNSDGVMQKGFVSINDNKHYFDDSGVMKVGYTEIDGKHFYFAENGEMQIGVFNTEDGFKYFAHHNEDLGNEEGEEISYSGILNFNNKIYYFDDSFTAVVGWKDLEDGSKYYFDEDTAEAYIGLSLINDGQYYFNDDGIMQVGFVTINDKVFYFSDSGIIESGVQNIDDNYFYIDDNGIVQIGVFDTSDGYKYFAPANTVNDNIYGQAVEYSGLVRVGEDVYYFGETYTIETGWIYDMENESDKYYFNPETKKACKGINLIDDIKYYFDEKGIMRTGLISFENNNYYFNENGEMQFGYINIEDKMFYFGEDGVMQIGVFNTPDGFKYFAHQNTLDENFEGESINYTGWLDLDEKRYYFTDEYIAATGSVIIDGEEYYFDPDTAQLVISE

With “(1/3)-phospho-myo-inositol hexaakisphosphate [Myo-InsP7(1/3)]”, in the series on TcdA and TcdB holotoxins [1] (setting [4]), the AC50 came out at 3.04 µM.
As for `OP(O)(=S)OC1C(OP(O)(O)=S)C(OP(O)(O)=S)C(OP(O)(O)=S)C(OP(O)(O)=S)C1OP(O)(O)=S` [Myo-InsP6(S), myo-inositol-(1,2,3,4,5,6-phosphorothioate)], the AC50 in the series on TcdA and TcdB holotoxins [1] (setting [4]) came to 1.99 µM. Moreover, the Phytase resistance result in the series on phytase is on record as “increased phytase resistance”.
Turning to `O=P(O)(O)OC1C(O)C(OP(=O)(O)O)C(OP(=O)(O)O)C(OP(=O)(O)O)C1OP(=O)(O)O` (stereo not drawn) [Myo-InsP5(1), myo-inositol-(2,3,4,5,6-pentakisphosphate)], the AC50 in the series with TcdA and TcdB holotoxins [1] (setting [4]) stood at 8.67 µM.
The same measure, in the same setting: under `O=P(O)(O)OC1C(O)C(OP(=O)(O)O)C(OP(=O)(O)O)C(OP(=O)(O)O)C1OP(=O)(O)O` (stereo not drawn) [Myo-InsP5(2), myo-inositol-(1,3,4,5,6-pentakisphosphate)] stands 10.5 µM.
Take `O=P(O)(O)O[C@H]1[C@H](OP(=O)(O)O)[C@@H](OP(=O)(O)O)[C@H](OP(=O)(O)O)[C@@H](OP(=O)(O)O)[C@H]1OP(=O)(O)O` [Myo-InsP6, myo-inositol-hexakisphosphate]: the Mortality in the series on C. difficile is given as 40%. In the series with Caco-2 colonocytes, inhibition was half-maximal at 10 µM (IC50). Moreover, the AC50 with TcdA and TcdB holotoxins [1] stood at 14.8 µM. Further, the “IC50, C. difficile toxins autocleaved” value on TcdA and TcdB holotoxins [2] (FIGS. 3A-3B) stood at 10 µM. In addition, on TcdA and TcdB holotoxins [2] (TcdB, FIG. 3A left), the “AC50, toxin autocleavage” value stood at 10 µM. Also, the “Statistical significance of the protective effect” value in series [3] (2.5 mg/kg group) was “statistically significant”. For the same compound, the “Protection of mice from CDI (survival)” value in series [3] was “dose dependently protects mice from CDI; also recorded: dose-dependent protective effects”.
In the case of `O=P(O)(O)OC1C(O)C(OP(=O)(O)O)C(OP(=O)(O)O)C(OP(=O)(O)O)C1O` (stereo not drawn) [Myo-InsP4(4,6), myo-inositol-(1,2,3,5-tetrakisphosphate)], in the series on TcdA and TcdB holotoxins [1] (setting [4]), the AC50 is more than 1000 µM.
Turning to inositolhexakissulfate [InS6], in the series on TcdA and TcdB holotoxins [1], the “Toxin cleavage activity (preliminary studies)” value is reported as “active compound”.
For the compound `O=P(O)(O)OC1[C@H](OP(=O)(O)O)[C@H](OP(=O)(O)O)C(O)[C@H](OP(=O)(O)O)[C@H]1OP(=O)(O)O` (stereo partly drawn) [Myo-InsP5(4), myo-inositol-(1,2,3,5,6-pentakisphosphate)], the AC50 in the series on TcdA and TcdB holotoxins [1] is more than 1000 µM.
With `O[C@H]1[C@H](O)[C@@H](O)[C@H](O)[C@@H](O)[C@H]1O` [myo-inositol, (1R,2R,3S,4S,5R,6S)-cyclohexane-1,2,3,4,5,6-hexol], the “Protection of mice from CDI (survival)” value in series [3] is recorded as “not evident”.
As for `O=P(O)(O)OC1C(O)C(OP(=O)(O)O)C(OP(=O)(O)O)C(OP(=O)(O)O)C1OP(=O)(O)O` (stereo not drawn) [Myo-InsP5(3), myo-inositol-(1,2,4,5,6-pentakisphosphate)], in the series with TcdA and TcdB holotoxins [1] (setting [4]), the AC50 is 95.6 µM.
Same read-out and setting: under `O=P(O)(O)OC1C(O)C(OP(=O)(O)O)C(OP(=O)(O)O)C(OP(=O)(O)O)C1O` (stereo not drawn) [Myo-InsP4(2,6), myo-inositol-(1,3,4,5-tetrakisphosphate)] stands more than 1000 µM.
